“Also recorded” adds a separate entry of the source.
Columns and labels:
PPARγ = target: T1, PPARγ (Homo sapiens, UniProt P37231); test: SPR on immobilized PPARγ; type: binding; conditions: SPR, immobilized PPARγ
T1 sequence (P37231 195-477 isoform P37231-2 limits assumed): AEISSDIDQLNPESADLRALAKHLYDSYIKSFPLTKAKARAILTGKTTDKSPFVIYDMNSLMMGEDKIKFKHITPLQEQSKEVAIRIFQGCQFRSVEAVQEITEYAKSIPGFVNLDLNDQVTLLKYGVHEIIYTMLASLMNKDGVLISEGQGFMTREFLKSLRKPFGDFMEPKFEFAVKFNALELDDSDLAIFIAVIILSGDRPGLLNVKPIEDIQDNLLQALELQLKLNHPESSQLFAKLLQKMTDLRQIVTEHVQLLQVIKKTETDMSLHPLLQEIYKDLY
Protocol: ; SPR analysis was also performed using the immobilized PPARγ LBD to evaluate if this protein portion was involved in the interaction with 1; […]. Conversely, no affinity of the diterpene towards Hsp60 was observed (Fig. 2c).
To assess the potential of 1 to act as a PPARγ modulator, we investigated the structural and functional aspects of its interaction with this nuclear receptor. To define the structural features required by 1 for an efficient interaction with PPARγ, as a first step, we performed SPR analyses using some diterpenes displaying structural relationship with 1 (compounds 2–9, Fig. 1). […]. SPR analyses were carried out on a BIACORE 3000 instrument (GE-Healthcare). PPARα, PPARγ, PPARδ and HSP60 surfaces were prepared on research−grade CM5 sensor chips (GE Healthcare). Proteins (100 μg/ml in 10 mM CH3COONa, pH 5.0) were immobilized using a standard amine−coupling protocol, to obtain densities of 3–5 kRU. Testing compounds were dissolved in 100% DMSO to obtain 4 mM solutions, and then diluted in PBS containing variable amounts of DMSO, achieving a final DMSO concentration of 0.1%. […]. SPR experiments and data elaboration were carried out as reported elsewhere.

HT-29 cells = test: HT-29 cell growth (cell counting); conditions: GW9662 10 μM 6 h, then compound 10 μM for 24 and 48 h
Protocol: Data are the mean ± SD of three independent experiments performed in duplicate giving similar results. Significance is indicated as *p ≤ 0.05, **p ≤ 0.01 and ***p ≤ 0.001. (b) HT29 cells were seeded in 24-well in order to reach the density of cells/cm^2 in standard conditions (10^5 cells). […] The experiments were performed in triplicate and the data expressed as mean ± SD. Significance is indicated as **p ≤ 0.01 and ***p ≤ 0.001.

With `C=C1C2CCC3C(CCC4[C@@H](C(=O)OC)C[C@@H](O)C[C@]43C)(C2)[C@H]1O` (some centres unmarked) [Compound 2] the Kd (PPARγ) was 1.86 ± 0.078 µM and the koff (PPARγ) was 0.051 s⁻¹.

Compound `C=C1C2CCC3C(CCC4[C@@H](C(=O)OC)C[C@@H](O)C[C@]43C)(C2)[C@@H]1O` (some centres unmarked) [Compound 3] has a Kd (PPARγ) of 4.59 ± 0.206 µM and a koff (PPARγ) of 0.096 s⁻¹.

For `C=C1C2CCC3C(CCC4[C@@H](C(=O)O)C[C@@H](O)C[C@]43C)(C2)[C@H]1O` (some centres unmarked) [Compound 4], the KD (PPARγ) was “No binding”.

`C=C1C2CCC3C(CCC4[C@@H](CO)C[C@@H](O)C[C@]43C)(C2)[C@H]1O` (some centres unmarked) [Compound 5] was tested, and the KD (PPARγ) was “No binding”.

`C=C1C2CCC3C(CCC4[C@@H](C(=O)OC)C[C@@H](OC(C)=O)C[C@]43C)(C2)[C@H]1OC(C)=O` (some centres unmarked) [Compound 6] was tested, and the KD (PPARγ) was “No binding”.

With `CC1CC23CC1CCC2[C@]1(C)C[C@H](C)C[C@](C)(C(=O)O)C1CC3=O` (some centres unmarked) [Compound 7] the KD (PPARγ) was “No binding”.

In the case of `C=C1C(=O)C23C(O)C1CCC2C12COC3(O)C(O)C1C(C)(C)CCC2O` (centres unmarked) [Compound 8], the KD (PPARγ) is reported as “not detected; also recorded: No binding”.

For `C=C1C(=O)C23CCC4[C@@]5(C)C[C@@H](O)C[C@@]4(OC5=O)[C@@]2(C)CC[C@]1(O)C3` (some centres unmarked) [Compound 9], the KD (PPARγ) was “not detected; also recorded: No binding”.

With `CN(CCOc1ccc(CC2SC(=O)NC2=O)cc1)c1ccccn1` (centres unmarked) [Rosiglitazone, reference compound] the “cell counts after GW9662 pre-treatment versus compound alone” value (HT-29 cells) was “less pronounced effect”.

Reference: publication PMC5259791 (Scientific Reports, 2017)
